Laboratory results taken from patent US7101908B2, “Bicyclic carbohydrate compounds useful in the treatment of infections caused by herpesviridae” (Kemin Pharma Europe B.V.B.A., priority 2001, dated 2006).
In brackets after ≈: the same amount, converted by molar mass.

Experiments:
CMV AD-169 strain = test: Plaque reduction assay in HEL cells, CMV AD-169 strain; format: cell-based, human cytomegalovirus; conditions: human embryonic lung fibroblast (HEL) cells; for IC50: Human betaherpesvirus 5, AD169, HEL, 168 h, plaques counted on day 7, read-out: IC50 CMV AD-169 Strain (inhibitory concentration required to reduce virus plaque formation by 50%); for IC50 CMV AD-169 Strain (inhibitory concentration required to reduce virus plaque formation by 50%): plaques counted on day 7
Method: (§1) The compounds were screened against various pathogenic viruses and more specific the human cytomegalovirus (CMV). […] After 2 hours of incubation at 37° C., the infected cells were replenished with 0.1 ml of medium containing serial dilutions of the test compound. On day 7 the plaques were counted microscopically after staining the cells with Giemsa's solution. The minimum antiviral concentration was expressed as the dose required to inhibit virus-induced plaque formation by 50%.

CMV Davis strain = test: Plaque reduction assay in HEL cells, CMV Davis strain; format: cell-based, human cytomegalovirus; conditions: human embryonic lung fibroblast (HEL) cells; for IC50: Human betaherpesvirus 5, HEL, 168 h, plaques counted on day 7, read-out: IC50 CMV David Strain (inhibitory concentration required to reduce virus plaque formation by 50%)
Method: as §1

[1] = intravenous ganciclovir; people; cited from earlier work

Structure (SMILES)	IC50 (CMV AD-169 strain)	IC50 (CMV Davis strain)	melting point	IC50 CMV AD-169 Strain (inhibitory concentration required to reduce virus plaque formation by 50%) (CMV AD-169 strain)	IC50 CMV David Strain (inhibitory concentration required to reduce virus plaque formation by 50%) (CMV Davis strain; plaques counted on day 7)	IV recipients who have to stop treatment because of side effects [1]
CO[C@@H]1[C@@H](OC)[C@H](c2ccccc2)O[C@@H]2CO[C@@H](c3ccccc3)O[C@@H]12 [Compound A1]	2.7 µg/mL (≈ 7.58 µM)	2 µg/mL (≈ 5.61 µM)	97 to 98 °C			
CO[C@@H]1[C@@H](OC)[C@H](Cc2ccccc2)O[C@@H]2CO[C@@H](c3ccccc3)O[C@@H]12 [Compound A2]	5 µg/mL (≈ 13.5 µM)	20 µg/mL (≈ 54 µM)				
CCO[C@@H]1[C@@H](OCC)[C@H](Cc2ccccc2)O[C@@H]2CO[C@@H](c3ccccc3)O[C@@H]12 [Compound A3]	2.5 µg/mL (≈ 6.27 µM)	3.2 µg/mL (≈ 8.03 µM)	87 to 89 °C	2.7 µg/mL (≈ 6.78 µM)	2.8 µg/mL (≈ 7.03 µM)	
C#CCO[C@@H]1[C@@H](OCC#C)[C@H](Cc2ccccc2)O[C@@H]2CO[C@@H](c3ccccc3)O[C@@H]12 [Compound A5]	0.5 µg/mL (≈ 1.19 µM)	0.5 µg/mL (≈ 1.19 µM)	81 to 83 °C			
CO[C@@H]1[C@@H](OC)[C@H](c2ccccc2)O[C@@H]2CO[C@@H](c3ccc4ccccc4c3)O[C@@H]12 [Compound A6]	0.47 µg/mL (≈ 1.16 µM)	0.8 µg/mL (≈ 1.97 µM)	135 °C			
CO[C@@H]1[C@@H](OC)[C@H](c2ccccc2)O[C@@H]2CO[C@@H](c3ccc(-c4ccccc4)cc3)O[C@@H]12 [Compound A7]	0.8 µg/mL (≈ 1.85 µM)	0.6 µg/mL (≈ 1.39 µM)	111 to 112 °C			
Nc1nc(O)c2ncn(COC(CO)CO)c2n1 [Ganciclovir, reference compound]	1.3 µg/mL (≈ 5.09 µM)	0.5 µg/mL (≈ 1.96 µM)		2.5 µg/mL (≈ 9.79 µM)		More than 10%
